From patent US10918623B2, “Methods of treating influenza” (Biotron Limited, priority 2017, dated 2021)

Columns and labels:
influenza = conditions: human, in vivo; cited from earlier work
in vitro = conditions: dog
Influenza A (H1N1) = type: cell-based
Influenza A (H3N2) = type: cell-based
[1] = test system: PR8 wild-type influenza A virus; test: microbe, parasite or virus in culture; type: cell-based; conditions: PR8, MDCK
[2] = biological target: M2 viroporin of influenza A (Influenza A virus, UniProt P06821); conditions: cited from earlier work
SHIV-1PND2 = type: cell-based
[3] = test system: SHIV-1SCVpu (ion channel sequence of HIV-1 Vpu); type: cell-based
MDCK cells = conditions: dog

Chain of M2 viroporin of influenza A (P06821 whole entry, looked up): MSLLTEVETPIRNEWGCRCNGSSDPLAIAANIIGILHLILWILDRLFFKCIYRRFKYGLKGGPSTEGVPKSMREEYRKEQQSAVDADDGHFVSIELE

SMILES	Reduction of time to alleviation of symptoms of influenza (influenza) [h]	CC50 (in vitro) [µM]	Comments (Influenza A (H1N1))	Comments (Influenza A (H3N2))	EC50 [1] [µM]	EC90 [1] [µM]	Activity against the M2 viroporin of influenza A [2]	Virus replication (SHIV-1PND2)	Virus released into the culture supernatant as measured by viral p27 protein [3]	Toxic effects (no toxic effects up to) (MDCK cells) [µM]
CCOC(=O)C1=C[C@@H](OC(CC)CC)[C@H](NC(C)=O)[C@@H](N)C1 [oseltamivir]	16.8	–	–	–	–	–	–	–	–	–
Cn1cc(-c2cccc3cc(C(=O)NC(=N)N)ccc23)cn1 [BIT225, N-carbamimidoyl-5-(1-methyl-1H-pyrazol-4-yl)-2-naphthamide]	–	32	Active	Active	~10	12	only limited activity	does not significantly reduce virus replication	reduced virus released	> 100
